Experimental data as given in the NIST ThermoML archive (doi:10.1016/j.tca.2015.01.012).
Values joined by “and” are separate entries in the source; they are usually repeats but may differ in a detail not shown here. Identical values can stand only once. ± gives the expanded uncertainty stated by the source.

Assay: molar heat capacity at constant pressure
Settings: 101.33 kPa, Crystal, Small (less than 1 g) adiabatic calorimetry

O=C(O)c1cccnc1 [3-carboxylpyridine]
Settings	molar heat capacity at constant pressure
1 K	0.0015 J/K/mol
2 K	0.0121 ± 0.016 J/K/mol
3 K	0.0409 ± 0.016 J/K/mol
4 K	0.0968 ± 0.017 J/K/mol
5 K	0.1891 ± 0.018 J/K/mol
5.3 K	0.2521 ± 0.02 J/K/mol
5.53 K	0.2833 ± 0.021 J/K/mol
5.71 K	0.3119 ± 0.022 J/K/mol
5.9 K	0.3323 ± 0.023 J/K/mol
6 K	0.3359 ± 0.023 J/K/mol
6.07 K	0.3625 ± 0.024 J/K/mol
6.23 K	0.3927 ± 0.025 J/K/mol
6.39 K	0.3921 ± 0.025 J/K/mol
6.55 K	0.4232 ± 0.026 J/K/mol
6.7 K	0.4579 ± 0.027 J/K/mol
6.86 K	0.5025 ± 0.029 J/K/mol
7 K	0.5397 ± 0.03 J/K/mol
7.03 K	0.5557 ± 0.031 J/K/mol
7.19 K	0.5983 ± 0.032 J/K/mol
7.36 K	0.6211 ± 0.033 J/K/mol
7.52 K	0.6706 ± 0.035 J/K/mol
7.69 K	0.6993 ± 0.036 J/K/mol
7.84 K	0.7188 ± 0.037 J/K/mol
8 K	0.7924 ± 0.04 J/K/mol and 0.8151 ± 0.041 J/K/mol
8.17 K	0.8389 ± 0.042 J/K/mol
8.34 K	0.8744 ± 0.043 J/K/mol
8.51 K	0.9394 ± 0.046 J/K/mol
8.68 K	1.001 ± 0.048 J/K/mol
8.86 K	1.063 ± 0.051 J/K/mol
9 K	1.099 ± 0.052 J/K/mol
9.03 K	1.093 ± 0.052 J/K/mol
9.21 K	1.135 ± 0.053 J/K/mol
9.38 K	1.246 ± 0.058 J/K/mol
9.56 K	1.315 ± 0.061 J/K/mol
9.73 K	1.428 ± 0.065 J/K/mol
9.92 K	1.479 ± 0.067 J/K/mol
10 K	1.48 ± 0.067 J/K/mol
10.17 K	1.542 ± 0.07 J/K/mol
10.5 K	1.674 ± 0.075 J/K/mol
10.82 K	1.86 ± 0.083 J/K/mol
11.15 K	2.012 ± 0.089 J/K/mol
11.48 K	2.15 ± 0.094 J/K/mol
11.83 K	2.356 ± 0.1 J/K/mol
12.19 K	2.553 ± 0.11 J/K/mol
12.55 K	2.742 ± 0.12 J/K/mol
12.92 K	2.969 ± 0.13 J/K/mol
13.29 K	3.19 ± 0.14 J/K/mol
13.67 K	3.425 ± 0.15 J/K/mol
14.06 K	3.628 ± 0.15 J/K/mol
14.45 K	3.87 ± 0.16 J/K/mol
14.84 K	4.121 ± 0.17 J/K/mol
15 K	4.221 ± 0.18 J/K/mol
15.23 K	4.365 ± 0.18 J/K/mol
15.63 K	4.629 ± 0.2 J/K/mol
16.04 K	4.894 ± 0.21 J/K/mol
16.44 K	5.19 ± 0.22 J/K/mol
16.85 K	5.494 ± 0.23 J/K/mol
17.27 K	5.794 ± 0.24 J/K/mol
17.67 K	6.094 ± 0.25 J/K/mol
18.09 K	6.421 ± 0.27 J/K/mol
18.52 K	6.77 ± 0.28 J/K/mol
18.95 K	7.125 ± 0.3 J/K/mol
19.38 K	7.466 ± 0.31 J/K/mol
19.82 K	7.809 ± 0.32 J/K/mol
20 K	7.998 ± 0.33 J/K/mol
20.68 K	8.601 ± 0.12 J/K/mol
22 K	9.701 ± 0.13 J/K/mol
23.36 K	10.88 ± 0.15 J/K/mol
24.74 K	12.09 ± 0.16 J/K/mol
25 K	12.34 ± 0.16 J/K/mol
26.14 K	13.4 ± 0.17 J/K/mol
27.57 K	14.79 ± 0.18 J/K/mol
29.02 K	16.15 ± 0.2 J/K/mol
30 K	17.11 ± 0.22 J/K/mol
30.49 K	17.6 ± 0.22 J/K/mol
31.97 K	18.99 ± 0.24 J/K/mol
33.48 K	20.37 ± 0.25 J/K/mol
34.99 K	21.77 ± 0.26 J/K/mol
35 K	21.76 ± 0.26 J/K/mol
36.53 K	23.11 ± 0.28 J/K/mol
38.07 K	24.44 ± 0.29 J/K/mol
39.63 K	25.75 ± 0.3 J/K/mol
40 K	26.08 ± 0.31 J/K/mol
41.2 K	27.05 ± 0.2 J/K/mol
42.78 K	28.38 ± 0.21 J/K/mol
44.36 K	29.6 ± 0.21 J/K/mol
45 K	30.14 ± 0.22 J/K/mol
45.95 K	30.92 ± 0.22 J/K/mol
47.56 K	32.14 ± 0.23 J/K/mol
49.17 K	33.43 ± 0.23 J/K/mol
50 K	33.99 ± 0.23 J/K/mol
50.79 K	34.59 ± 0.24 J/K/mol
52.41 K	35.8 ± 0.24 J/K/mol
54.04 K	36.96 ± 0.25 J/K/mol
55.68 K	38.11 ± 0.26 J/K/mol
57.33 K	39.19 ± 0.26 J/K/mol
58.97 K	40.29 ± 0.27 J/K/mol
60 K	40.99 ± 0.27 J/K/mol
60.63 K	41.38 ± 0.27 J/K/mol
62.28 K	42.42 ± 0.28 J/K/mol
63.94 K	43.46 ± 0.28 J/K/mol
65.61 K	44.41 ± 0.29 J/K/mol
67.28 K	45.36 ± 0.29 J/K/mol
68.95 K	46.38 ± 0.3 J/K/mol
70 K	47 ± 0.3 J/K/mol
70.62 K	47.37 ± 0.3 J/K/mol
72.71 K	48.52 ± 0.31 J/K/mol
75.22 K	49.8 ± 0.32 J/K/mol
77.73 K	51.14 ± 0.32 J/K/mol
80 K	52.23 ± 0.33 J/K/mol
80.25 K	52.35 ± 0.33 J/K/mol
80.98 K	52.79 ± 0.33 J/K/mol
82.78 K	53.53 ± 0.34 J/K/mol
84.21 K	54.31 ± 0.34 J/K/mol
85.31 K	54.74 ± 0.34 J/K/mol
86.73 K	55.5 ± 0.35 J/K/mol
87.85 K	55.91 ± 0.35 J/K/mol
89.25 K	56.68 ± 0.35 J/K/mol
90 K	56.95 ± 0.38 J/K/mol
90.39 K	57.08 ± 0.38 J/K/mol
91.78 K	57.81 ± 0.38 J/K/mol
94.31 K	59 ± 0.39 J/K/mol
96.84 K	60.11 ± 0.39 J/K/mol
99.38 K	61.16 ± 0.4 J/K/mol
100 K	61.37 ± 0.4 J/K/mol
101.92 K	62.18 ± 0.4 J/K/mol
104.47 K	63.23 ± 0.41 J/K/mol
107.02 K	64.34 ± 0.41 J/K/mol
109.57 K	65.35 ± 0.42 J/K/mol
110 K	65.59 ± 0.42 J/K/mol
112.12 K	66.36 ± 0.42 J/K/mol
114.68 K	67.47 ± 0.43 J/K/mol
117.24 K	68.52 ± 0.43 J/K/mol
119.81 K	69.55 ± 0.44 J/K/mol
120 K	69.67 ± 0.44 J/K/mol
122.39 K	70.55 ± 0.44 J/K/mol
124.96 K	71.54 ± 0.45 J/K/mol
127.53 K	72.56 ± 0.45 J/K/mol
130 K	73.64 ± 0.46 J/K/mol
130.1 K	73.62 ± 0.46 J/K/mol
132.68 K	74.7 ± 0.46 J/K/mol
135.26 K	75.71 ± 0.47 J/K/mol
137.83 K	76.72 ± 0.47 J/K/mol
140 K	77.53 ± 0.48 J/K/mol
140.41 K	77.7 ± 0.48 J/K/mol
142.99 K	78.8 ± 0.48 J/K/mol
145.58 K	79.79 ± 0.49 J/K/mol
148.16 K	80.74 ± 0.49 J/K/mol
150 K	81.39 ± 0.49 J/K/mol
150.75 K	81.72 ± 0.5 J/K/mol
153.33 K	82.67 ± 0.5 J/K/mol
155.92 K	83.7 ± 0.51 J/K/mol
158.51 K	84.71 ± 0.51 J/K/mol
160 K	85.26 ± 0.51 J/K/mol
161.1 K	85.73 ± 0.51 J/K/mol
163.71 K	86.79 ± 0.52 J/K/mol
166.31 K	87.79 ± 0.52 J/K/mol
168.9 K	88.81 ± 0.53 J/K/mol
170 K	89.19 ± 0.53 J/K/mol
171.49 K	89.87 ± 0.53 J/K/mol
174.09 K	90.88 ± 0.54 J/K/mol
176.68 K	91.97 ± 0.54 J/K/mol
179.28 K	92.85 ± 0.55 J/K/mol
180 K	93.23 ± 0.55 J/K/mol
181.87 K	93.96 ± 0.55 J/K/mol
184.47 K	95.03 ± 0.56 J/K/mol
187.07 K	96.11 ± 0.56 J/K/mol
189.66 K	97.14 ± 0.57 J/K/mol
190 K	97.4 ± 0.57 J/K/mol
192.26 K	98.33 ± 0.58 J/K/mol
194.86 K	99.43 ± 0.58 J/K/mol
197.45 K	100.6 ± 0.6 J/K/mol
200 K	101.7 ± 0.6 J/K/mol
200.05 K	101.7 ± 0.6 J/K/mol
202.65 K	102.8 ± 0.6 J/K/mol
205.28 K	104.1 ± 0.6 J/K/mol
207.88 K	105.2 ± 0.6 J/K/mol
210 K	106.3 ± 0.6 J/K/mol
210.48 K	106.4 ± 0.6 J/K/mol
213.09 K	107.6 ± 0.6 J/K/mol
215.69 K	109 ± 0.6 J/K/mol
218.3 K	110 ± 0.6 J/K/mol
220 K	110.9 ± 0.6 J/K/mol
220.91 K	111.3 ± 0.6 J/K/mol
223.52 K	112.6 ± 0.6 J/K/mol
226.13 K	113.8 ± 0.7 J/K/mol
228.74 K	115.2 ± 0.7 J/K/mol
230 K	115.8 ± 0.7 J/K/mol
231.36 K	116.7 ± 0.7 J/K/mol
233.98 K	117.7 ± 0.7 J/K/mol
236.59 K	119.1 ± 0.7 J/K/mol
239.21 K	120.4 ± 0.7 J/K/mol
240 K	120.8 ± 0.7 J/K/mol
241.83 K	121.8 ± 0.7 J/K/mol
244.45 K	123.1 ± 0.7 J/K/mol
247.11 K	124.5 ± 0.7 J/K/mol
249.74 K	125.8 ± 0.7 J/K/mol
250 K	125.8 ± 0.7 J/K/mol
252.36 K	127.1 ± 0.7 J/K/mol
254.98 K	128.5 ± 0.7 J/K/mol
257.61 K	129.8 ± 0.7 J/K/mol
260 K	131 ± 0.7 J/K/mol
260.24 K	131.1 ± 0.7 J/K/mol
262.86 K	132.5 ± 0.7 J/K/mol
265.49 K	134 ± 0.7 J/K/mol
268.12 K	135.3 ± 0.8 J/K/mol
270 K	136.3 ± 0.8 J/K/mol
270.75 K	136.7 ± 0.8 J/K/mol
273.15 K	137.9 ± 0.8 J/K/mol
273.38 K	138.2 ± 0.8 J/K/mol
276.01 K	139.3 ± 0.8 J/K/mol
278.63 K	140.8 ± 0.8 J/K/mol
280 K	141.6 ± 0.8 J/K/mol
281.26 K	142.3 ± 0.8 J/K/mol
283.88 K	143.5 ± 0.8 J/K/mol
286.5 K	144.8 ± 0.8 J/K/mol
289.15 K	146.5 ± 0.8 J/K/mol
290 K	146.9 ± 0.8 J/K/mol
291.77 K	147.8 ± 0.8 J/K/mol
294.38 K	149.3 ± 0.8 J/K/mol
296.99 K	150.7 ± 0.8 J/K/mol
298.15 K	151.3 ± 0.8 J/K/mol
299.59 K	152.1 ± 0.8 J/K/mol
300 K	152.3 ± 0.8 J/K/mol
302.64 K	153.7 ± 0.8 J/K/mol
306.07 K	155.5 ± 0.9 J/K/mol
309.49 K	157.1 ± 0.9 J/K/mol
310 K	157.7 ± 0.9 J/K/mol
312.9 K	159 ± 0.9 J/K/mol
316.3 K	161.2 ± 0.9 J/K/mol
319.71 K	162.9 ± 0.9 J/K/mol
320 K	163.1 ± 0.9 J/K/mol
323.11 K	164.8 ± 0.9 J/K/mol
326.5 K	166.8 ± 0.9 J/K/mol
329.88 K	168.6 ± 0.9 J/K/mol
330 K	168.5 ± 0.9 J/K/mol
333.26 K	170.6 ± 0.9 J/K/mol
336.64 K	172.4 ± 0.9 J/K/mol
340 K	174 ± 0.9 J/K/mol
343.36 K	175.7 ± 1 J/K/mol
346 K	177.3 ± 1 J/K/mol
346.71 K	177.4 ± 1 J/K/mol
